Reference: US12679855B2, “Inhibitors of the enzyme enolase for precision oncology” (Board of Regents, The University of Texas System, priority 2019, dated 2026)
“Also recorded” adds a separate entry of the source. Like-named read-outs stand apart in the source and are kept apart here.

Experiments:
[1] = test system: D423 (ENO1-deleted) glioma cells; assay: Cell proliferation assay (crystal violet) in ENO1-deleted glioma cells; assay type: cell-based; conditions: for IC50: Glioma cell; for selectivity for ENO1-deleted cells: versus ENO1-rescued (D423 ENO1) and ENO1-intact (LN319) glioma cells
Method: Cell culture experiments. Cell culture experiments were conducted using the D423-MG cell line. 1p36 homozygous deletion in D423 includes the genes from CAMTAJ to SLC25A33; this includes ENO1. Isogenic ENO1 ectopically rescued lines were described previously (pCMV ENO1 5X) (Muller et al., 2012, which is incorporated by reference herein). An ENO1-intact cell line (LN319) was used as a control for sensitivity to Enolase inhibitors. Cells were routinely cultured in Dulbecco's modified Eagle's medium supplemented with 10% fetal bovine serum.
Cell proliferation assay. Cell Proliferation was determined by crystal violet staining, as previously described (Leonard et al., 2016 and Satani et al., 2016). The cell lines used were D423 (ENO1-deleted), D423 ENO1 (overexpressing ENO1) and LN319 (control). Glioma cells were seeded in 96-well plates and treated with varying concentrations of the inhibitors described above for 7 days. Cells were then washed with PBS, fixed with 10% formalin and stained with 0.05% crystal violet. Washed and dried plates were dye-extracted using 10% acetic acid, and absorbance was measured at 595 nm using Omegastar Plate Reader (BMG Labtech). To test the efficacy of the synthesized under hypoxic conditions, 1×10^4 cells were plated in 96-well plates, treated with VCY13, VCY15, VCY16, or VCY17 and incubated for 3 days in a hypoxia station (Don Whitley Scientific, Shipley, UK) set at 1% O2 and 5% CO2. Crystal violet staining was then performed as described above.
Additional Biological Data. Pro-drug inhibitor structures and corresponding IC50 values against ENO1-deleted cells are shown below in Table 2. The name and corresponding structures of all synthesized inhibitors are given in left and middle columns of each table. Pro-drug moieties in blue represent a second pro-drug leave group while those in red represent a first pro-drug leave group. Some inhibitors also contain an acetyl-protected hydroxamate, which is also a biologically labile moiety. ENO1-deleted (D423), ENO1-isogenically rescued (D423 ENO1), and ENO1-WT (LN319) cells were treated with either pro-drug inhibitor for 5 days at 21% O2, unless otherwise specified. […] IC50,D423 values at 21% O2 are given in the right columns of each table. Experiments conducted at 1% O2 (hypoxic) or 70% O2 (hyperoxic) conditions are noted, where appropriate.

NCI-60 cell lines = assay: NCI-60 screening; assay type: cell-based; conditions: NSC: D-813202
Description: Without wishing to be bound by any particular theory, phosphoamidates may be removed across broad cell types. Whilst the IDX184 utilized benzylamine in its pro-drug structure, this drug was specifically directed at hepatocytes, and no evidence was forthcoming that it would be a pro-drug moiety applicable for glioblastoma or other cancer drug delivery. […] For example, FLM37 has been submitted to the NCI-60 screening (NSC: D-813202). All cancer cell lines were affected at concentrations of FLM37 above 10 μM, some with as little as 1 μM. […] More generally, this means that the amine as a second leaving group is applicable as a universal second leaving group for the delivery of phosphonate/phosphate containing bioactive compounds.

[2] = test system: D423 (ENO1-deleted) glioma cells; assay: Cell proliferation assay (crystal violet) in ENO1-deleted glioma cells; assay type: cell-based
[3] = Human plasma stability assay (31P NMR); assay type: in vitro ADME
Method: VCY17 (left) and POMHEX (right) were prepared at 1.5 mM and added to human plasma in an NMR tube with 10% D2O for signal lock. […] As expected, emergence of the second peak after 1 h is due to hydrolysis of the acetyl-protected hydroxamate; the nitroimidazole moiety remains attached (mono-ester phosphonates always show ^31P-chemical shifts <20 ppm); intact phosphoramidate mixed ester was verified by ^31P-^1H HSQC showing resonance with protons at ~5 ppm (—CH2—O—P) and 4 ppm (—CH2—NH—P). Note that VCY17 and de-acetylated VCY17 can come out as doublets: this is because two chiral centers (Phosphorus and C1) yield cis/trans diasteromers.
VCY13 (FIG. 20A) and VCY31 (FIG. 20B) are thioesterase-labile phosphonoamidates. ENO1-deleted (D423, red), ENO1-isogenically rescued (D423 ENO1, blue), and ENO1-WT (LN319, grey) cells were treated with either VCY13 or VCY31 for 5 days. […] (FIG. 20B) VCY31 is a structurally similar pro-drug that uses 2-picolylamine, rather than benzylamine, as a second pro-drug leave group. […] 4 mM VCY31 was dissolved in 80% human plasma, 20% D2O and monitored by ^31P NMR (121 MHz) for 15 hours. Intact VCY31 has a ^31P NMR shift of 33 ppm. Hydrolysis of the thioester begins to occur after 2 hours, as indicated by the emergence of a peak at ~16 ppm.
Human plasma stability assay. POMHEX and VCY17 (1.5 mM) were added to human plasma (Sigma #P9523) in an NMR tube with 10% D2O for signal lock. ^31P NMR measurements (31P CPD, 1000 transients) were conducted every 30 minutes on the first day and every 24 hours, for 4 days afterwards.

[4] = test system: xenografted tumor (D423 ENO1-homozygously deleted cell line); assay: Anti-tumor efficacy in xenografted tumor model; assay type: in vivo, Foxn1 nude mice
Method: Two HEX pro-drugs from different classes were tested for anti-tumor efficacy in xenografted tumor (D423 ENO1-homozygously deleted cell line) pre-clinical models (the standard immunodeficient Foxn1 nude mice). Tumor volumes (y-axis) were measured at the indicated dates (x-axis). Without treatment, tumors grow inexorably. […] This is notable because of the high esterase activity in mouse plasma, rodents are a sub-optimal model for pre-clinical efficacy evaluation of esterase-labile pro-drugs.

[5] = assay type: in vitro ADME
Description: Also described herein are synthesized phosphonate pro-drugs that forgo the use of phosphoramidases or esterases to release the active pharmacophore. These moieties include the attachment of 2-(hydroxymethyl)phenol (VCY27) and 3-(hexadecyloxy)propan-1-ol (ESB7). […] Cyclosal pro-drugs have previously been described for protecting phosphate-containing antiviral nucleotides; however, it was herein discovered that its delivery efficacy can be enhanced under high O2 conditions—a previously unknown finding. Separately, the 3-(hexadecyloxy)propan-1-ol is a pro-drug that has been applied to the antiviral nucleotide Brincidofovir (CMX-001). Appending the long chain ester to HEX may facilitate the pro-drug moiety to be used for the treatment of malignant glioma.

[6] = Serum containing cell culture media stability assay; assay type: in vitro ADME
Method: Serum containing Cell Culture Media stability assay. POMHEX and VCY17 (1 mM) were added to DMEM-containing 10% Fetal Bovine Serum cell culture media in an NMR tube with 10% D2O for signal lock) and incubated at 37° C. ^31P NMR measurements (^31P CPD, 1000 transients) were conducted every 24 hours, for 4 days.

[7] = nitroimidazole in VCY17, nitrofuran in VCY15; cited from earlier work
Enolase = Enolase enzymatic activity assay (spectrophotometric, 2-PG to PEP, 240 nm); assay type: biochemical, human; conditions: serial dilutions beginning at 100 μM, native lysates
Method: (§1) To assure that benzylamine-protected HEX (FLM38) was not inhibiting Enolase directly, an in vitro spectrophotometric assay was performed to examine Enolase catalytic activity through conversion of 2-phoshpoglycerate (2-PG) to phosphoenolpyruvate (PEP). Without wishing to be bound by theory, if FLM38 were to inhibit Enolase directly, a dose-dependent decrease in absorbance at 240 nm would be observed, corresponding to decreased production of PEP. […] The possibility that the benzylamine moiety could undergo non-enzymatic hydrolysis in aqueous conditions was also examined. This study was performed by measuring the pH-dependence of compound degradation in phosphate buffered D2O via NMR over 3 days.
Enolase enzymatic activity assay. The enzyme activity assay was performed according to a previously described procedure (Muller et al., 2012, which is incorporated by reference herein). […]
In the first, the lysates were treated with the serial dilutions of FLM38 (starting at 100 μM) and the reaction initiated by adding 2.5 mM 2-PG and optical density (OD) was measured at 240 nm using Omegastar Plate reader (BMG Labtech) over the course of 3 h.
In the second experiment, the lysates were pre-incubated in 96-well plates with serial dilutions of FLM38 (starting at 100 µM) at 37° C. for 20 h. The reaction was initiated by adding 2.5 mM 2-PG and OD was measured at 240 nm. […]

[8] = pH degradation assay (31P NMR in phosphate buffered D2O); assay type: physicochemical; conditions: pH 3, 7, and 8.82, phosphate buffered D2O, NMR over 3 days
Method: as §1
pH degradation assay. Solutions of 50 mM phosphate buffered D2O were prepared at pH 3, 7, and 8.82. For each condition, FLM38 (5 mg, […]) was dissolved in […] of phosphate buffered D2O and placed in NMR tubes. Hydrolysis was monitored by ^31P NMR and was evidenced by the degradation of the compound peak at ~20 ppm and the emergence of the hydrolyzed product at ~18 ppm. Scans were collected every 12 h on a Bruker 500 MHz NMR.

[9] = 120 h, 21% O2, 5 days where stated, read-out: IC50 against D423 (ENO1-deleted) cells
[10] = 120 h, ENO1-deleted (D423) cells, 5 days, 21% O2, read-out: IC50,D423
[11] = 4 mM in 80% human plasma, 20% D2O, 31P NMR

With `CC(C)(C)C(=O)OCOP(=O)(NCc1ccccc1)C1CCCN(O)C1=O` (stereo not shown) [FLM37] the IC50 [1, 9] was 244 nM, the IC50 [1, 10] was 150 nM and the “selectivity for ENO1-deleted cells” value [1] was “selective killing towards D423 cells; also recorded: selective for ENO1-deleted cells”. The “concentration at which some cancer cell lines were affected” value (NCI-60 cell lines) was at least 1 µM, the “concentrations at which all cancer cell lines were affected” value (NCI-60 cell lines) was “above 10 μM” and the IC50 ([2]; Glioma cell, 144 h, 6 days, starting concentration 1 μM, crystal violet (FIG. 7), read-out: IC50 towards D423 cells) was 63 nM.
For `CC(=O)ON1CCCC(P(=O)(NCc2ccccn2)OCCSC(=O)C(C)(C)C)C1=O` (stereo not shown) [VCY31, 2-oxo-3-((2-(pivaloylthio)ethoxy)((pyridin-2-ylmethyl)amino)phosphoryl) piperidin-1-yl acetate], the IC50 [1, 9] was 59 nM, the IC50 [1, 10] was 59 nM and the “selectivity for ENO1-deleted cells” value [1] was “dose-dependent selectivity for ENO1-deleted cells”. For the same compound, the “hydrolysis of the thioester begins to occur after” value [3, 11] was 2 h, the “time without full hydrolysis” value [3, 11] was over 15 h and the tumor volume response ([4]; 90 mg/kg/day IP) was “suppressed tumor growth”.
With `CCCCCCCCCCCCCCCCOCCCOP(=O)(O)C1CCCN(O)C1=O` (stereo not shown) [ESB7, 3-(hexadecyloxy)propyl hydrogen (1-hydroxy-2-oxopiperidin-3-yl)phosphonate] the IC50 [1, 10] was 202 nM, the “selectivity for ENO1-deleted cells” value [1] was “selective killing against ENO1-deleted cells” and the “stability under various pH conditions and in biological fluids” value [5] was “robust stability”.
Compound `O=C1C([P@]2(=O)OCc3ccccc3O2)CCCN1O` (stereo partly drawn) [VCY27, 1-hydroxy-3-((S)-2-oxido-4H-benzo[d][1,3,2]dioxaphosphinin-2-yl)piperidin-2-one] has an IC50 [1, 9] of about 500 nM, an IC50 [1, 10] of 500 nM and an IC50 ([1]; D423 cells, 70% O2 (hyperoxic), read-out: IC50,D423 at 70% O2) of 15 nM. For the same compound, the “selectivity for ENO1-deleted cells” value [1] was “selective killing against ENO1-deleted cells”, the tumor volume response ([4]; 1 IP and 1 SC injection, at 35 mg/kg/day each) was “immediate abrogation of tumor growth and eventual tumor regression” and the “stability under various pH conditions and in biological fluids” value [5] was “robust stability”.
For `CC(=O)ON1CCCC(P(=O)(NCc2ccccc2)OCc2cnc([N+](=O)[O-])n2C)C1=O` (stereo not shown) [VCY17, 3-((benzylamino)((1-methyl-2-nitro-1H-imidazol-5-yl)methoxy)phosphoryl)-2-oxopiperidin-1-yl acetate], the IC50 [1, 10] was 12700 nM, the IC50 ([1]; D423 cells, 1% O2 (hypoxic), read-out: IC50,D423 at 1% O2) was 975 nM and the “difference in bioactivation from 21% to 1% O2” value ([1]; taking into account HIF-1α/hypoxia-driven increase in ENO2 expression) was at most 50 fold. For the same compound, the “stable in ex-vivo human plasma for” value [3] was “more than 48 hours”, the “stability in ex-vivo human plasma over the course of” value ([3]; 1.5 mM, human plasma with 10% D2O, 31P NMR) was at least 24 h and the “stable in serum-containing culture media” value [6] was “more than 48 hours”. The “potency increase under 1% O2” value ([2]; 4 days, 1% O2 versus 21% O2, ENO1-deleted glioma cells) was “greater than 15 fold” and the “redox potential of the nitroheterocycle” value [7] was −390 mV.
In the case of `O=C1C(P(=O)(O)NCc2ccccc2)CCCN1O` (stereo not shown) [FLM38, N-benzyl-P-(1-hydroxy-2-oxopiperidin-3-yl)phosphonamidic acid], the “direct inhibition of Enolase (dose-dependent decrease in absorbance at 240 nm)” value (Enolase) is reported as “does not inhibit Enolase directly” and the “stability to non-enzymatic hydrolysis” value [8] is reported as “remained intact”.
